Experimental data from US9845327B2, “Treatment of proteinopathies” (THE GENERAL HOSPITAL CORPORATION, priority 2011, dated 2017).

Key:
[1] = system: human dopamine neurons generated from iPS cells; test: Proteolysis by radioactive pulse-chase in human iPS dopamine neurons; format: cell-based; settings: wild-type neurons; 100 μM IFG 5 days, 1 day wash-out
Description: (§1) In this Example, human dopamine neurons generated from iPS cells of an unaffected control were treated with a pharmacological chaperone activator of GCase polypeptide, isofagomine (IFG). […] Treatment of wild-type neurons with 100 μM IFG for 5 days followed by 1 day wash-out increased the levels of GCase polypeptide (FIGS. 15A and 15B). This increase was likely due to the fact that wild-type GCase polypeptide was occasionally misfolded in the ER and degraded (about 30% of the total made in the ER), and IFG appeared to also stabilize the wild-type misfolded forms.
In this Example, it was further determined if the effects discussed above could also be replicated with non-native site binding compounds that can act as allosteric activators of GCase polypeptide, and therefore unlike IFG, would not require a washout to activate GCase polypeptide. […]
Proteolysis of long-lived proteins was determined by radioactive pulse-chase using ^3H-leucine. […] Samples were centrifuged at 20,000×g for 20 min, 4° C., and the radioactivity was measured in 5 ml of scintillation cocktail using a Beckman LS 1701 liquid scintillation counter (Beckman Instruments). Precipitated protein pellets were extracted in 200 μl of Na deoxycholate, 0.1 M NaOH, and radioactivity was determined. Percent proteolysis was calculated as described in detail elsewhere (Kaushik et al. Methods Enzymol. 452: 297, 2009). […]

[2] = molecular target: T1, GCase polypeptide (Homo sapiens, UniProt P04062); test: GCase polypeptide levels and post-ER forms by western blot in human iPS dopamine neurons; format: cell-based; settings: wild-type neurons from an unaffected control; 100 μM IFG for 5 days followed by 1 day wash-out
T1 construct: endogenous in cells; host or cells: human iPS-derived midbrain dopamine neurons (healthy control; PD patient with SNCA triplication, Coriell ND27760)
T1 sequence (P04062 40-536): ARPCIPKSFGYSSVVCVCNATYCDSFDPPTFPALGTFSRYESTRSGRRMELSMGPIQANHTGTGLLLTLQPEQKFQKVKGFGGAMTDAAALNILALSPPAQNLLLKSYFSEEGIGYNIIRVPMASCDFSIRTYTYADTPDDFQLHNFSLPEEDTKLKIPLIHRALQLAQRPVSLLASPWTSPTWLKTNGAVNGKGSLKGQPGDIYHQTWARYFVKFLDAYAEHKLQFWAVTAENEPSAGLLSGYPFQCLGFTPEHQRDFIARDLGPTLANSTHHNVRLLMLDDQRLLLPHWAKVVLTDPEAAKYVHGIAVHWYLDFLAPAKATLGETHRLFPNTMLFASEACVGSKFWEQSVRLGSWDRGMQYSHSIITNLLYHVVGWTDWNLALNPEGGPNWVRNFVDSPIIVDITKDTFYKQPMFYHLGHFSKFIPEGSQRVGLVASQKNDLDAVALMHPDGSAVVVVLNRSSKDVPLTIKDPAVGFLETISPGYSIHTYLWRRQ
Description: as §1
It was also shown in this Example that treatment with the GCase polypeptide activator increased the levels of total GCase protein and increased the post-ER forms, indicating enhancement of flux to the lysosome (FIG. 19B).
In this Example, the effect of combining the GCase polypeptide pharmacological chaperone IFG with the antioxidant n-acetyl-cysteine (NAC) on GCase polypeptide maturation in PD iPS neurons was tested. Neurons were treated with either IFG, NAC, or IFG and NAC together, and GCase polypeptide maturation was analyzed by western blot.
Most materials for SDS-PAGE were obtained from Invitrogen (NuPAGE system). Protein lysates were boiled in sample buffer (20 mM Tris, 1% (v/v) glycerol, 180 mM β-mercaptoethanol, 0.003% (w/v) bromophenol blue, 2% (w/v) SDS, pH 6.8), resolved on 4%-12% Bis-Tris polyacrylamide precast gels in a MOPS-SDS running buffer, or 4%-12% Tris-Glycine gels. 10% Tris-Glycine gels were utilized for some GCase polypeptide western blot's (FIGS. 13B, 13D, and 13E, and FIGS. 14C and 14F). […] Blots were blocked in Odyssey blocking buffer (Li-Cor biosciences) containing 0.05% Tween, or 5% non-fat dry milk in TBS-T 0.2%, followed by incubation with primary antibodies (see above for dilutions), and detected with anti-mouse or -rabbit IgG conjugated to IRDye 680 or 800 (1:10,000, Li-Cor biosciences). […] Any nonspecific bands detected were not included in densitometric analyses. […]

levels of GCase polypeptide [2]: increased
SMILES: OC[C@H]1CNC[C@@H](O)[C@@H]1O [IFG, isofagomine]
Proteolysis rate, fold increase compared to controls [1]: 3 fold
